Here are results for 8 compounds from patent publication US9247741B2, “Use of macrocyclic picolinamides as fungicides” (DOW AGROSCIENCES LLC, priority 2013, dated 2016).

Each structure is given as a SMILES string. Some results are limits rather than exact numbers.

Holding throughout (assay type): in vivo
The subject of test [1] is Blumeria graminis Fsp. Hordei. Put plainly: Barley powdery mildew (ERYSGH) disease control. The settings on record: 24 h, 1 Day Protectant, read-out: ERYSGH disease control rating. As for the experimental part: Technical grades of materials were dissolved in acetone, which were then mixed with nine volumes of water containing 110 ppm Triton X-100. The fungicide solutions were applied onto wheat seedlings using an automated booth sprayer to run-off. All sprayed plants were allowed to air dry prior to further handling. All fungicides were evaluated using the aforementioned method for their activity vs. all target diseases. Wheat leaf blotch and brown rust activity were also evaluated using track spray applications, in which case the fungicides were formulated as EC formulations, containing 0.1% Trycol 5941 in the spray solutions. Wheat plants (variety Yuma) were grown from seed in a greenhouse in 50% mineral soil/50% soil-less Metro mix until the first leaf was fully emerged, with 7-10 seedlings per pot. These plants were inoculated with an aqueous spore suspension of Septoria tritici either prior to or after fungicide treatments. After inoculation the plants were kept in 100% relative humidity (one day in a dark dew chamber followed by two to three days in a lighted dew chamber at 20° C.) to permit spores to germinate and infect the leaf. The plants were then transferred to a greenhouse set at 20° C. for disease to develop. When disease symptoms were fully expressed on the l^st leaves of untreated plants, infection levels were assessed on a scale of 0 to 100 percent disease severity. Percent disease control was calculated using the ratio of disease severity on treated plants relative to untreated plants. Evaluation of Fungicidal Activity: Barley Powdery Mildew (Blumeria graminis Fsp. Hordei; Synonym: Erysiphe graminis Fsp. Hordei; Bayer Code […]) Barley seedlings (variety Harrington) were propagated in soil-less Metro mix, with each pot having 8 to 12 plants, and used in the test when first leaf was fully emerged. Test plants were inoculated by dusting with infected stock plants 24 hr after fungicide treatments. After inoculation the plants were kept in a greenhouse set at 20° C. for disease to develop. Fungicide formulation, application and disease assessment on the sprayed leaves followed the procedures as described in the Example A.

In test [2] the test system is Rhyncosporium secalis. Kind of test: Barley scald (RHYNSE) disease control. The note with it: Hordeum vulgare, 24 h, 1 Day Protectant, read-out: RHYNSE disease control rating. As for the experimental part:
Technical grades of materials were dissolved in acetone, which were then mixed with nine volumes of water containing 110 ppm Triton X-100. The fungicide solutions were applied onto wheat seedlings using an automated booth sprayer to run-off. All sprayed plants were allowed to air dry prior to further handling. All fungicides were evaluated using the aforementioned method for their activity vs. all target diseases. Wheat leaf blotch and brown rust activity were also evaluated using track spray applications, in which case the fungicides were formulated as EC formulations, containing 0.1% Trycol 5941 in the spray solutions. Wheat plants (variety Yuma) were grown from seed in a greenhouse in 50% mineral soil/50% soil-less Metro mix until the first leaf was fully emerged, with 7-10 seedlings per pot. These plants were inoculated with an aqueous spore suspension of Septoria tritici either prior to or after fungicide treatments. After inoculation the plants were kept in 100% relative humidity (one day in a dark dew chamber followed by two to three days in a lighted dew chamber at 20° C.) to permit spores to germinate and infect the leaf. The plants were then transferred to a greenhouse set at 20° C. for disease to develop. When disease symptoms were fully expressed on the l^st leaves of untreated plants, infection levels were assessed on a scale of 0 to 100 percent disease severity. Percent disease control was calculated using the ratio of disease severity on treated plants relative to untreated plants. Evaluation of Fungicidal Activity: Barley Scald (Rhyncosporium secalis; Bayer code […]) Barley seedlings (variety Harrington) were propagated in soil-less Metro mix, with each pot having 8 to 12 plants, and used in the test when first leaf was fully emerged. Test plants were inoculated by an aqueous spore suspension of Rhyncosporium secalis 24 hr after fungicide treatments. After inoculation the plants were kept in a dew room at 20° C. with 100% relative humidity for 48 hr. The plants were then transferred to a greenhouse set at 20° C. for disease to develop. Fungicide formulation, application and disease assessment on the sprayed leaves followed the procedures as described in the Example A.

Test [3] concerns Glomerella lagenarium; Anamorph: Colletotrichum lagenarium. Put plainly: Cucumber anthracnose (COLLLA) disease control. The note with it: Colletotrichum orbiculare, 24 h, 1 Day Protectant, read-out: COLLLA disease control rating. As for the experimental part: Technical grades of materials were dissolved in acetone, which were then mixed with nine volumes of water containing 110 ppm Triton X-100. The fungicide solutions were applied onto wheat seedlings using an automated booth sprayer to run-off. All sprayed plants were allowed to air dry prior to further handling. All fungicides were evaluated using the aforementioned method for their activity vs. all target diseases. Wheat leaf blotch and brown rust activity were also evaluated using track spray applications, in which case the fungicides were formulated as EC formulations, containing 0.1% Trycol 5941 in the spray solutions. Wheat plants (variety Yuma) were grown from seed in a greenhouse in 50% mineral soil/50% soil-less Metro mix until the first leaf was fully emerged, with 7-10 seedlings per pot. These plants were inoculated with an aqueous spore suspension of Septoria tritici either prior to or after fungicide treatments. After inoculation the plants were kept in 100% relative humidity (one day in a dark dew chamber followed by two to three days in a lighted dew chamber at 20° C.) to permit spores to germinate and infect the leaf. The plants were then transferred to a greenhouse set at 20° C. for disease to develop. When disease symptoms were fully expressed on the l^st leaves of untreated plants, infection levels were assessed on a scale of 0 to 100 percent disease severity. Percent disease control was calculated using the ratio of disease severity on treated plants relative to untreated plants. Evaluation of Fungicidal Activity: Cucumber Anthracnose (Glomerella lagenarium; Anamorph: Colletotrichum lagenarium; Bayer Code COLLLA) Cucumber seedlings (variety Bush Pickle) were propagated in soil-less Metro mix, with each pot having one plant, and used in the test when 12 to 14 days old. Test plants were inoculated with an aqueous spore suspension of Colletotrichum lagenarium 24 hr after fungicide treatments. After inoculation the plants were kept in a dew room at 22° C. with 100% relative humidity for 48 hr to permit spores to germinate and infect the leaf. The plants were then transferred to a growth room set at 22° C. for disease to develop. Fungicide formulation, application and disease assessment on the sprayed leaves followed the procedures as described in the Example A.

On to `CCCO[C@H]1CCC[C@H](NC(=O)c2nccc(OC)c2OCOC(C)=O)C(=O)O[C@@H](C)[C@@H]1CCC(C)C` [Compound 25, ((2-(((3S,7S,8S,9S)-8-isopentyl-9-methyl-2-oxo-7-propoxyoxonan-3-yl)carbamoyl)-4-methoxypyridin-3-yl)oxy)methyl acetate], for which the pest or weed control at 100 ppm in test [1], in test [2] and in test [3] was more than 70% throughout.
In the case of `CCCC[C@H]1[C@H](C)OC(=O)[C@@H](NC(=O)c2nccc(OC)c2OCOC(C)=O)CCC[C@@H]1Oc1ccccc1` [Compound 33], the pest or weed control at 100 ppm in test [1], in test [2] and in test [3] was more than 70% each time.
Consider `COc1ccnc(C(=O)N[C@H]2CCC[C@H](Oc3ccccc3)[C@@H](CCC(C)C)[C@H](C)OC2=O)c1OC(C)=O` [Compound 36], for which the pest or weed control at 100 ppm in test [1], in test [2] and in test [3] was more than 70% throughout.
Regarding `COc1ccnc(C(=O)N[C@H]2CCC[C@H](Oc3ccccc3)[C@@H](CCC(C)C)[C@H](C)OC2=O)c1OCOC(C)=O` [Compound 40], the pest or weed control at 100 ppm in test [1], in test [2] and in test [3] was more than 70% each time.
Consider `COc1ccnc(C(=O)N[C@H]2CCC[C@H](OCC3CC3)[C@@H](Cc3ccc(F)cc3)[C@H](C)OC2=O)c1OCOC(C)=O` [Compound 61], for which the pest or weed control at 100 ppm was less than 70% in test [1], more than 70% in test [2] and more than 70% in test [3].
Take `CCCO[C@H]1CCC[C@H](NC(=O)c2nccc(OC)c2OC(C)=O)C(=O)O[C@@H](C)[C@@H]1Cc1ccccc1` [Compound 70]: the pest or weed control at 100 ppm is less than 70% in test [1], more than 70% in test [2] and more than 70% in test [3].
In the case of `CCCC[C@H]1[C@H](C)OC(=O)[C@@H](NC(=O)c2nccc(OC)c2OCOC(C)=O)CCC[C@@H]1OCC1CC1` [Compound 73], the pest or weed control at 100 ppm in test [1], in test [2] and in test [3] was more than 70% each time.
On to `CCCO[C@H]1CCC[C@H](NC(=O)c2nccc(OC)c2OC(C)=O)C(=O)O[C@@H](C)[C@@H]1CCC(C)C` [Compound 74, 2-(((3S,7S,8S,9S)-8-isopentyl-9-methyl-2-oxo-7-propoxyoxonan-3-yl)carbamoyl)-4-methoxypyridin-3-yl acetate], for which the pest or weed control at 100 ppm in test [1] is less than 70%; in test [2] it was more than 70%; in test [3], more than 70%.
